Key:
PcaU1.2 = assay: Specificity evaluation of PcaU1.2 sensor against similar aromatic molecules; type: cell-based, P. putida; conditions: relative to PCA response
Procedure: For specificity evaluation of the biosensor, PcaU1.2 was tested against molecules with similar functional groups, namely benzoate, 4-hydroxybenzoate (4HB), and catechol. The tested molecules were relatively smaller than PCA, to eliminate any rejection of the molecule from the binding pocket due to steric hindrance.

PobR-DM [1] = assay: Whole cell biosensing of 4HB and benzoate with PobR-DM sensor plasmid; type: cell-based; conditions: P. putida with pPobR
Procedure: Whole cell biosensing of 4HB and benzoate: For 4HB sensing activity of the whole cell biosensor, a small scoop of pPobR transformed P. putida cells from a streaked plate or a glycerol stock was grown overnight as a seed culture. The overnight saturated seed culture was then diluted 100-fold in fresh growth medium, grown for 5-6 h at 30° C. to achieve an OD600 of ˜0.6, then distributed in deep 96-well blocks in a volume of 300-500 μL and induced with varying concentrations of 4HB or benzoate. The cultures were grown overnight (14-16 h) under vigorous shaking in a deep-well shaker (Taitec BioShakerM-BR-022UP). The cultures were diluted 100-fold in phosphate-buffered saline (PBS) with 1% sucrose and analyzed using an LSR II flow cytometer (BD Biosciences) or Accuri C6 flow cytometer (BD Biosciences) with standard settings for measurement of GFP fluorescence (ex 488 nm, em ˜530/30 nm). The arithmetic mean fluorescence value of ˜100,000 cells tightly gated based on forward and side scatter (FSC vs SSC) was used for a dose-response plot. Same protocol was followed for comparison of UbiC clones.

UbiC = UbiC (Escherichia coli, UniProt P26602); conditions: cited from earlier work
PobR-DM [2] = conditions: protocatechuate only at 1000-fold greater concentration than 4HB; cited from earlier work

Sequence of UbiC (P26602 whole entry): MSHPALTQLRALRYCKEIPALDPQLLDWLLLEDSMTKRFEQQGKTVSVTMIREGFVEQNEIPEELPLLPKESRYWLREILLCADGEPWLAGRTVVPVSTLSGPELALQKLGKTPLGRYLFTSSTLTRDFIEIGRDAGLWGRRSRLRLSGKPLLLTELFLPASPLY

Row | SMILES | activation of the PcaU1.2 sensor (PcaU1.2) | response of the PobR-DM sensor in E. coli (PobR-DM [2]) | further results
1 | O=C(O)c1ccc(O)cc1 [4HB, 4-hydroxybenzoic acid] | Low but measurable activation |  | 
2 | O=C(O)c1ccccc1 [benzoate] | Low but measurable activation |  | response of the whole cell 4HB biosensor (PobR-DM [1]): did not show any response; Ki (UbiC; inhibitor of UbiC): > 3 mM; affinity weaker / Kp higher than 4HB (UbiC; product inhibition of UbiC): 1000 fold
3 | Oc1ccccc1O [catechol] | a signal that was an appreciable fraction of PCA response |  | 
4 | O=[N+]([O-])c1ccc(O)cc1 [p-nitrophenol] |  | does not respond | 
5 | O=C(O)c1ccc(O)c(O)c1 [protocatechuate, 3,4-dihydroxybenzoate] |  | very weakly responds | 
